# Data as given in ChEMBL document CHEMBL5291721, “A preclinical secondary pharmacology resource illuminates target-adverse drug reaction associations of marketed drugs” (Nat Commun, 2023).
# Columns and labels:
# [1] = molecular target: Gamma-aminobutyric acid receptor subunit alpha-1 (Rattus norvegicus, UniProt P62813); assay type: functional
# [2] = molecular target: Sodium-dependent noradrenaline transporter (Homo sapiens, UniProt P23975)
# [3] = molecular target: Delta-type opioid receptor (Homo sapiens, UniProt P41143)
# Sequence of Delta-type opioid receptor (P41143 whole entry): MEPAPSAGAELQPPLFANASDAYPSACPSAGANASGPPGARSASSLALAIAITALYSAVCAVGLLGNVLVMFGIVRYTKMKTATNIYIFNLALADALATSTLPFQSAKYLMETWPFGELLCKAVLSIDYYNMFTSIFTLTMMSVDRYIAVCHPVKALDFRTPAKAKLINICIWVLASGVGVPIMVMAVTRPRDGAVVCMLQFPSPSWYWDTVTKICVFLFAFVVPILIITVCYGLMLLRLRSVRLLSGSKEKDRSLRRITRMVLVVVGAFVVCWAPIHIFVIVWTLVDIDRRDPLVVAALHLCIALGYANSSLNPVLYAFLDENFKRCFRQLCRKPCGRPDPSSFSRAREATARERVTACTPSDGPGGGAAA
# [4] = molecular target: 5-hydroxytryptamine receptor 2B (Homo sapiens, UniProt P41595); assay type: functional, cell-based
# Sequence of 5-hydroxytryptamine receptor 2B (P41595 whole entry): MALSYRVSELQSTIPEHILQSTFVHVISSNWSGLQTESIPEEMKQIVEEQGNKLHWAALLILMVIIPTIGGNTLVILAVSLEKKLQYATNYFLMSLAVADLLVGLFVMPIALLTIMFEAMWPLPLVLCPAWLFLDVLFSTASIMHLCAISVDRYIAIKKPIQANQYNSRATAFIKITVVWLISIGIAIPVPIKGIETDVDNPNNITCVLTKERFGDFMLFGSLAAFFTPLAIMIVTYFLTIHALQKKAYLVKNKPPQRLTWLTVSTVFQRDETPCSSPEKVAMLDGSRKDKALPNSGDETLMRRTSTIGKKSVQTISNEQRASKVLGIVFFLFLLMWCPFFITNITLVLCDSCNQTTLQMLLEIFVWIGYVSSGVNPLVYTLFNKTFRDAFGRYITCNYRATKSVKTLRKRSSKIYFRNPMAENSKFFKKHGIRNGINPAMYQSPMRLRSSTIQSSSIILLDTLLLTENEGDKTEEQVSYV
# [5] = molecular target: 3',5'-cyclic-AMP phosphodiesterase 4D (Homo sapiens, UniProt Q08499); assay type: functional
# [6] = molecular target: T1, Alpha-2A adrenergic receptor (Homo sapiens, UniProt P08913); assay type: functional, cell-based
# T1 sequence (P08913 whole entry): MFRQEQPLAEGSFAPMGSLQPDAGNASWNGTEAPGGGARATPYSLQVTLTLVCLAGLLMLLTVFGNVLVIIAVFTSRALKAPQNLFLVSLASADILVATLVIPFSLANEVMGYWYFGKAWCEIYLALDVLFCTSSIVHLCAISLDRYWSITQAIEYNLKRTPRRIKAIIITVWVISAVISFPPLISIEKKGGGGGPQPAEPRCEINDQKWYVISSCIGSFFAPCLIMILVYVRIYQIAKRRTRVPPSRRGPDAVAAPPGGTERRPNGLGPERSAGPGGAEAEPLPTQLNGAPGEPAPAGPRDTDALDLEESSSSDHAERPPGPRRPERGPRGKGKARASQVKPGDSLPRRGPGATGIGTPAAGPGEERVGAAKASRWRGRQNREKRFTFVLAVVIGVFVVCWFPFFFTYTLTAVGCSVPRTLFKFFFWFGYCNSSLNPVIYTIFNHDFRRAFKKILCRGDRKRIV
# [7] = molecular target: T2, Equilibrative nucleoside transporter 1 (Homo sapiens, UniProt Q99808)
# T2 sequence (Q99808 whole entry): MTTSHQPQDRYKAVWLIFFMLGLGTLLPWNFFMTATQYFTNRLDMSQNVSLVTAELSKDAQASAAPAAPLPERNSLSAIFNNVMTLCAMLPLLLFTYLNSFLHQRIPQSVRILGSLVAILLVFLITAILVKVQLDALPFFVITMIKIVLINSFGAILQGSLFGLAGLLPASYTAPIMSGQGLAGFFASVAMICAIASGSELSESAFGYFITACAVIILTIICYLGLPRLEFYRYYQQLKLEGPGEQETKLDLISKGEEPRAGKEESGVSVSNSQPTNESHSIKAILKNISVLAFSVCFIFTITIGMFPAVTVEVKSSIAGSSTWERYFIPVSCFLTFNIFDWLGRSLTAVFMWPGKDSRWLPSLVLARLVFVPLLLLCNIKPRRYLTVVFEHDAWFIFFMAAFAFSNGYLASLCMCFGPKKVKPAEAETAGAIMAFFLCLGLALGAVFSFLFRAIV
# [8] = molecular target: Melanocortin receptor 3 (Homo sapiens, UniProt P41968)
# Sequence of Melanocortin receptor 3 (P41968 whole entry): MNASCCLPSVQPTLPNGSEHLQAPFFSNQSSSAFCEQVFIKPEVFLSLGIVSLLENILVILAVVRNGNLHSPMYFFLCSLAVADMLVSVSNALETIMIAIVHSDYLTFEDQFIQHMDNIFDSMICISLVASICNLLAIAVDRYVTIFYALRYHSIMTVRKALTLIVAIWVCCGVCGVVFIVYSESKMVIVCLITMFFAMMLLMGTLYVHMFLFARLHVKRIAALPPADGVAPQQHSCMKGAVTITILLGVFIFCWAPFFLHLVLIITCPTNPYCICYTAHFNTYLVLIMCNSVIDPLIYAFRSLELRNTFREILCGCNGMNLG
# [9] = molecular target: Growth hormone secretagogue receptor type 1 (Homo sapiens, UniProt Q92847)
# Sequence of Growth hormone secretagogue receptor type 1 (Q92847 whole entry): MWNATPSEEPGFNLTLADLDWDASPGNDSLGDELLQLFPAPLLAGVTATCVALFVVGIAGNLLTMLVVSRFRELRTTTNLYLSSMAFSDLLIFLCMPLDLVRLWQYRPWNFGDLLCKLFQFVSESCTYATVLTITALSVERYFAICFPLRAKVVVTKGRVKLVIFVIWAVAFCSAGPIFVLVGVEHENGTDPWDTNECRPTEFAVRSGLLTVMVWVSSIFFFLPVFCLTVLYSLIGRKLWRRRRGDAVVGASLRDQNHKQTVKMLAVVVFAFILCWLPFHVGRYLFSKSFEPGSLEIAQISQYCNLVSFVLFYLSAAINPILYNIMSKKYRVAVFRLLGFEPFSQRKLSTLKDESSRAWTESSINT
# [10] = molecular target: Bile salt export pump (Homo sapiens, UniProt O95342); assay type: functional
# Sequence of Bile salt export pump (O95342 whole entry): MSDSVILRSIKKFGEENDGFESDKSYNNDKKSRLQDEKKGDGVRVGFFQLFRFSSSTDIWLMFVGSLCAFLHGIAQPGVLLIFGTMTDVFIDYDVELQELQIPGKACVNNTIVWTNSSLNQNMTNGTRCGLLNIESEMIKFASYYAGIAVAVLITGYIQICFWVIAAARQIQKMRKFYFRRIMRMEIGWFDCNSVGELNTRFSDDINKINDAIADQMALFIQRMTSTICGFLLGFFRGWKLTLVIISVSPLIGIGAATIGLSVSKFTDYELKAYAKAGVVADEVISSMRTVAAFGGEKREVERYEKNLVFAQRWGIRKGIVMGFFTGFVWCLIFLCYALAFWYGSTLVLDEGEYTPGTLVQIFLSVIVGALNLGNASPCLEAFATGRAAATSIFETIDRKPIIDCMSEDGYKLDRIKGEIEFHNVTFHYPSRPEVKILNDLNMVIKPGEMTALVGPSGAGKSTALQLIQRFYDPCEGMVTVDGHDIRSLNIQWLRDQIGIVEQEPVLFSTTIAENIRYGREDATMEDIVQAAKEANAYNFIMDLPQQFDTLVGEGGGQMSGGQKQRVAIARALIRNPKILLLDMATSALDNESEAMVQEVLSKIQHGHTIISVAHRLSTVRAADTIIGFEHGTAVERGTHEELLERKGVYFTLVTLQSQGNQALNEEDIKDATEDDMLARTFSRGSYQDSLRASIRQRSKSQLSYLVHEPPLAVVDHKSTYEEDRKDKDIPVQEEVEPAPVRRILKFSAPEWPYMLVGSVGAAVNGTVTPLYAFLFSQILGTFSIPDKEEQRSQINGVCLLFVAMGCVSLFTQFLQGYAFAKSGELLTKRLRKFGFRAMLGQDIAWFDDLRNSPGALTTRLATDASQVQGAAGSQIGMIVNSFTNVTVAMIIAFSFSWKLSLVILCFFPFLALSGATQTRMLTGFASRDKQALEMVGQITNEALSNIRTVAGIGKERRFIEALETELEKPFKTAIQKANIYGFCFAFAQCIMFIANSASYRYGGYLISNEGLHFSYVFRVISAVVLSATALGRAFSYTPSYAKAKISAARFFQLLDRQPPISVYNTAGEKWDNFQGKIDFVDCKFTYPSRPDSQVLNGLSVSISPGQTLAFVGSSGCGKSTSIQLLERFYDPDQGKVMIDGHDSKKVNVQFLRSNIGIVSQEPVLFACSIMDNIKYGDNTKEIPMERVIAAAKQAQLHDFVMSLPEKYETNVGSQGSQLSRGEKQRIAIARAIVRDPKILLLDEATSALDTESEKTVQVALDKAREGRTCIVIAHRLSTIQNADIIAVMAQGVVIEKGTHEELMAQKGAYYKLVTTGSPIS
# [11] = molecular target: T3, Prostaglandin G/H synthase 1 (Rattus norvegicus, UniProt Q63921); assay type: functional
# T3 sequence (Q63921 whole entry): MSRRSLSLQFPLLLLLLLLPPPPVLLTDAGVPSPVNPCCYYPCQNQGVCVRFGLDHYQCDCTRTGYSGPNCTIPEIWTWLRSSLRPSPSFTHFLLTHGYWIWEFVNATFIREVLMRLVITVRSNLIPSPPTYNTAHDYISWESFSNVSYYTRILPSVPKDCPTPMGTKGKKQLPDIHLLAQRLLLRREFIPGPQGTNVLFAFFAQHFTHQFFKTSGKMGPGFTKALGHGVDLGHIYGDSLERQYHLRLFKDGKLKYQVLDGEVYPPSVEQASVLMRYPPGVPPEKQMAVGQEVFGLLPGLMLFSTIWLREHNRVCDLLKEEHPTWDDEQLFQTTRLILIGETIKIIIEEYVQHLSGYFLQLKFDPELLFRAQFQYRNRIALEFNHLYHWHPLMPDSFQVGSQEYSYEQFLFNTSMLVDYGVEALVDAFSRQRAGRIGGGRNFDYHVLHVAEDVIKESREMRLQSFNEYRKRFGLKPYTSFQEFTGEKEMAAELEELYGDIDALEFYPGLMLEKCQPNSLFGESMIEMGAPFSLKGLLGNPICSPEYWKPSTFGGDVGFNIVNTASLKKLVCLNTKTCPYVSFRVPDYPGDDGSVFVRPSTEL
# [12] = molecular target: T1, Alpha-2A adrenergic receptor; assay type: functional, cell-based; remark: listed apart in the source
# [13] = molecular target: Sodium-dependent dopamine transporter (Homo sapiens, UniProt Q01959)
# Sequence of Sodium-dependent dopamine transporter (Q01959 whole entry): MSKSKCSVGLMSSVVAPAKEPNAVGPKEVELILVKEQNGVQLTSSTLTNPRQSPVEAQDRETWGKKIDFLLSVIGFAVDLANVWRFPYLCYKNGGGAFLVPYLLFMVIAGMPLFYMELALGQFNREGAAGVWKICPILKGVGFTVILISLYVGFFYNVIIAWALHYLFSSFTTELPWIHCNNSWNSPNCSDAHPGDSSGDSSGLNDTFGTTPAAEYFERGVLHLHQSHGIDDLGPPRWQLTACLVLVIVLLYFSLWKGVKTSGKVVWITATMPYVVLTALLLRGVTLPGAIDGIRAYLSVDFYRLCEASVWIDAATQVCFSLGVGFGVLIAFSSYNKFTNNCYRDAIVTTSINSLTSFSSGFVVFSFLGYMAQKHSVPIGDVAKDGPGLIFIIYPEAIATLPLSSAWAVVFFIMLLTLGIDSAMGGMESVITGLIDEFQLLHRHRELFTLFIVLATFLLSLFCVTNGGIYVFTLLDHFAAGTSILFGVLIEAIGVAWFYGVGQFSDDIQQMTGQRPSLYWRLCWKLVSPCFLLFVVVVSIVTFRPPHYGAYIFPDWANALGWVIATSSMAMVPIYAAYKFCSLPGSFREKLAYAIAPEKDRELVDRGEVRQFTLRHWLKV
# [14] = molecular target: Neuronal acetylcholine receptor subunit alpha-4 (Homo sapiens, UniProt P43681)
# Sequence of Neuronal acetylcholine receptor subunit alpha-4 (P43681 whole entry): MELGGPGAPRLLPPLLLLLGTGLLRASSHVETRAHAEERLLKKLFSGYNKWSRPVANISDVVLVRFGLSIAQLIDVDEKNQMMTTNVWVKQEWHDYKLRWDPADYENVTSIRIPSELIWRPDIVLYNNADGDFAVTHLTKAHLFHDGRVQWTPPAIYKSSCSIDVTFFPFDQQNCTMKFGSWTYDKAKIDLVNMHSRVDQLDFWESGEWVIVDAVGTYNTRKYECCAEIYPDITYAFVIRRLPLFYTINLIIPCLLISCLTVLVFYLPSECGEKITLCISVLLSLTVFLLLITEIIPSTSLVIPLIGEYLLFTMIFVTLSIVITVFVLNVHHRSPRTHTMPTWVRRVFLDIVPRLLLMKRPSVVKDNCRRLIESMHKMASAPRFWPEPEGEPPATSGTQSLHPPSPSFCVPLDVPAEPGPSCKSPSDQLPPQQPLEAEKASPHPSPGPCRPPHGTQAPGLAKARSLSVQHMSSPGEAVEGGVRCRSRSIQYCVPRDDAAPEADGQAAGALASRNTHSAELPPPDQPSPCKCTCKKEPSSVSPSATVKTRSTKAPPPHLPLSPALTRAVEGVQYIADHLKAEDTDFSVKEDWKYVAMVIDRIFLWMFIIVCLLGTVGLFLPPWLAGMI
# [15] = molecular target: D(1A) dopamine receptor (Homo sapiens, UniProt P21728); assay type: functional, cell-based
# Sequence of D(1A) dopamine receptor (P21728 whole entry): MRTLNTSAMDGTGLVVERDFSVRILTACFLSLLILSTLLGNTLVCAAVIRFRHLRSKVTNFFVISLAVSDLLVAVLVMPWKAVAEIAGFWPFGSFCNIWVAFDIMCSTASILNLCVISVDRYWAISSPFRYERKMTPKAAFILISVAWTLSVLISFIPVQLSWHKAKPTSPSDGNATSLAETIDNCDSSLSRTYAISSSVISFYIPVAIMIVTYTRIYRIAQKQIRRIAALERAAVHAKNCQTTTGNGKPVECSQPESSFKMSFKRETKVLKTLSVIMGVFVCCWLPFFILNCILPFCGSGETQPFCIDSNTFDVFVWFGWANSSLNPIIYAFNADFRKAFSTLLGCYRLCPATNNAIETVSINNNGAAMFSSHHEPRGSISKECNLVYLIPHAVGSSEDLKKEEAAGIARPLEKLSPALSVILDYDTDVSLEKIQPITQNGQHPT
# [16] = molecular target: Adenosine receptor A2a (Homo sapiens, UniProt P29274)
# [17] = molecular target: T4, 5-hydroxytryptamine receptor 3A (Homo sapiens, UniProt P46098); assay type: functional
# T4 sequence (P46098 whole entry): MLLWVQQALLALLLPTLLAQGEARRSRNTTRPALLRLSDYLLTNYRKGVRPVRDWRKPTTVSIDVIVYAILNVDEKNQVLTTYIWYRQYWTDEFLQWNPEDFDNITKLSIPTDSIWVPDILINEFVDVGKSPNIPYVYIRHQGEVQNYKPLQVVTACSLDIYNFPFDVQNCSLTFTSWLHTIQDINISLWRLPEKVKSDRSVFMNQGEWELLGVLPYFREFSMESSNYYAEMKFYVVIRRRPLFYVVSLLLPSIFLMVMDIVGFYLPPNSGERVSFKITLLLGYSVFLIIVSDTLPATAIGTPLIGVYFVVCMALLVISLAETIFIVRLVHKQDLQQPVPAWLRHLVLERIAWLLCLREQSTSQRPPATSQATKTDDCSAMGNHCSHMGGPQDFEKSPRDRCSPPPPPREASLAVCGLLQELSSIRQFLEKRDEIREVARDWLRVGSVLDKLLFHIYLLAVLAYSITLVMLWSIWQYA
# [18] = molecular target: Voltage-gated inwardly rectifying potassium channel KCNH2 (Homo sapiens, UniProt Q12809); assay type: functional; settings: read-out: AC50
# Further: assay procedure not described here.
# Sequence of Gamma-aminobutyric acid receptor subunit alpha-1 (P62813 whole entry): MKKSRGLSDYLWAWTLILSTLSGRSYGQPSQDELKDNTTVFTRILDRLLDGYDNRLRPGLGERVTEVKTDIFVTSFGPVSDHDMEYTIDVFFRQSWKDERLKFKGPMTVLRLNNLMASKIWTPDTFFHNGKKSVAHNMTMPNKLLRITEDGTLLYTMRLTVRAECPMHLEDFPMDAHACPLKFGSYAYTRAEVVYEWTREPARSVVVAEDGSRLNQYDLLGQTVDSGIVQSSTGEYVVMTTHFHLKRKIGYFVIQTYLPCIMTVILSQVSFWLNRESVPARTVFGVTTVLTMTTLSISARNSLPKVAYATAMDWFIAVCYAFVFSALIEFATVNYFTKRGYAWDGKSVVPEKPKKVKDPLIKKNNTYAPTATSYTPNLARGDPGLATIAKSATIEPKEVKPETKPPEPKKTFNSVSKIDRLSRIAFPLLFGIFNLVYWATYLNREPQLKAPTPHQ
Structure (SMILES),AC50 [1] [µM],AC50 [2] [µM],AC50 [3] [µM],AC50 [4] [µM],AC50 [5] [µM],AC50 [6] [µM],AC50 [7] [µM],AC50 [8] [µM],AC50 [9] [µM],AC50 [10] [µM],AC50 [11] [µM],AC50 [12] [µM],AC50 [13] [µM],AC50 [14] [µM],AC50 [15] [µM],AC50 [16] [µM],AC50 [17] [µM],AC50 [18] [µM]
CC(C)Cc1ccc(CC(=O)O)cc1 [IBUFENAC],> 30,> 30,> 30,> 30,> 30,> 30,> 30,> 30,> 30,> 300,> 30,> 30,> 30,> 30,> 30,> 30,> 30,> 30
CC(C)NNC(=O)c1ccncc1 [IPRONIAZID],> 30,> 30,> 30,> 30,> 30,> 30,> 30,> 30,> 30,> 300,0.45,> 30,> 30,> 30,> 30,> 30,> 30,> 30
NC[C@H]1O[C@H](O[C@H]2[C@H](O)[C@@H](O[C@H]3O[C@H](CO)[C@@H](O)[C@H](N)[C@H]3O)[C@H](N)C[C@@H]2N)[C@H](O)[C@@H](O)[C@@H]1O [KANAMYCIN],> 10,> 10,> 30,> 10,> 30,> 10,> 10,> 10,> 10,> 300,> 10,> 10,> 10,> 10,> 30,> 10,> 30,> 30
CN1C(=O)CC(C)(c2ccccc2)C1=O (stereo not drawn) [METHSUXIMIDE],> 10,> 10,> 30,> 10,> 30,> 10,> 10,> 10,> 10,> 300,> 10,> 10,> 10,> 10,> 30,> 10,> 30,> 30
C[C@H]1C[C@@H]2[C@H]([C@@H](O)C[C@@]3(C)[C@H]2CC[C@]3(O)C(=O)CO)[C@@]2(C)C=CC(=O)C=C12 [METHYLPREDNISOLONE],> 10,> 10,> 30,> 10,16,> 10,> 10,> 10,> 10,140,> 10,> 10,> 10,> 10,> 30,> 10,> 30,> 30
CCN(CC)CCNC(=O)c1cc(Cl)c(N)cc1OC [METOCLOPRAMIDE],> 10,> 10,> 30,4.3,> 30,> 10,> 30,> 30,> 30,> 300,> 30,> 10,> 10,> 10,> 10,> 30,3.55,2.77
CC(C)(C(=O)c1cccnc1)c1cccnc1 [METYRAPONE],> 10,> 10,> 30,> 10,> 30,> 10,> 10,> 10,> 10,280,> 10,> 10,> 10,> 10,> 10,> 10,> 30,> 30
NC(=O)c1ncn([C@@H]2O[C@H](CO)[C@@H](O)[C@H]2O)c1O [MIZORIBINE],> 10,> 30,> 30,> 30,> 30,> 30,> 30,> 30,> 30,> 300,> 30,> 30,> 30,> 30,> 30,> 30,> 30,> 30
NC1=NC(=O)C(c2ccccc2)O1 (stereo not drawn) [PEMOLINE],> 10,> 30,> 30,> 10,> 30,> 10,> 30,> 30,> 30,> 300,> 30,> 10,3.46,> 10,> 10,> 30,> 30,> 30
CC(C(=O)O)c1ccc(N2CC=CC2)c(Cl)c1 (stereo not drawn) [PIRPROFEN],> 10,> 10,> 30,> 10,> 30,> 10,> 30,> 30,> 30,270,> 30,> 10,> 10,> 10,> 10,> 30,> 30,> 30
CC[C@H](C)C(=O)O[C@H]1C[C@H](O)C=C2C=C[C@H](C)[C@H](CC[C@@H](O)C[C@@H](O)CC(=O)O)[C@H]21 [PRAVASTATIN],> 30,> 30,> 30,> 30,> 30,> 30,> 30,> 30,> 30,> 100,> 30,> 30,> 30,> 30,> 30,> 30,> 30,> 30
